In patent publication US11840686B2, “Modulation of prekallikrein (PKK) expression” (Ionis Pharmaceuticals, Inc., priority 2013, dated 2023):
Strand notation (5' to 3'): a small letter for the sugar, then the base; units joined by * are phosphorothioate-linked, units joined directly phosphodiester-linked; [ ] holds rarer units or linkages, { } end groups; capitals alone tell only the bases. e = 2'-O-(2-methoxyethyl) (MOE); [5mC] = 5-methylcytosine; d = 2'-deoxy (DNA)

Legend:
[1] = system: basal vascular permeability; test: Combination of PKK and Factor 12 antisense oligonucleotides on basal vascular permeability (Example 16); format: in vivo, mouse; conditions: positive control: PBS + HOE-140 30 μg ip
Description: Mice were treated with varying doses of ISIS 410944, an antisense oligonucleotide targeting Factor 12, and ISIS 482584 in a basal vascular permeability model.
Group 1 consisted of 8 mice and was treated with PBS administered subcutaneously twice a week for 3 weeks. No other treatment was administered to Group 1 which served as a control group to measure the basal levels of vascular permeability.
Group 2 consisted of 4 mice and was treated with PBS administered subcutaneously twice a week for 3 weeks. At the end of the treatment period, the mice were intraperitoneally administered 30 μg of HOE-140. Group 2 served as a positive control for inhibition of basal vascular permeability.
Groups 3, 4, 5, 6, and 7 consisted of 8 mice each and were treated with 2.5 mg/kg, 5 mg/kg, 10 mg/kg, 20 mg/kg, or 40 mg/kg (corresponding to 5 mg/kg, 10 mg/kg, 20 mg/kg, 40 mg/kg, or 80 mg/kg per week), respectively of ISIS 482584 and ISIS 410944 each administered subcutaneously twice a week for 3 weeks. Groups 3-7 served as the experimental treatment groups for examining the effect of ISIS 410944 and ISIS 482584 on basal vascular permeability.
All the groups were then injected with 30 mg/kg of Evans Blue solution in the tail vein. The mice were sacrificed 30 min after the Evans Blue solution administration and colons, feet, ears, and intestines were harvested.
The harvested tissues from the feet, colon, intestines, and ears were placed in formamide solution overnight to leach out the Evans Blue dye. The formamide solution containing feet and ear tissue was heated to 55° C. and left overnight. Higher OD values are associated with higher levels of permeability.

[2] = Tail bleeding assay (Example 20); format: in vivo, mouse; conditions: BALB/c mice; for Bleeding: blood collected over 40 minutes
Description: Tail-bleeding was measured to observe whether treatment with ISIS 482584 causes excess bleeding or hemorrhage in mice.
Groups of 10 male BALB/c mice were treated with 10 mg/kg, 20 mg/kg, or 40 mg/kg of ISIS 482584, administered subcutaneously twice a week for 3 weeks (weekly doses of 20 mg/kg, 40 mg/kg, or 80 mg/kg). A control group of 8 BALB/c mice was treated with PBS, administered subcutaneously twice a week for 3 weeks.
Two days after the final treatment of ISIS oligonucleotides or PBS, mice were placed in a tail bleeding chamber. Mice were anesthetized in the chamber with isoflurane. Then, a small piece of tail (approximately 4 mm from the tip) was cut with sterile scissors. The cut tail was immediately placed in a 15 mL Falcon tube filled with approximately 10 mL of 0.9% NaCl buffer solution warmed to 37° C. The blood was collected over the course of 40 minutes. The saline filled tubes were weighed both before and after bleeding.

[3] = system: thrombus formation; test: Stenosis-induced inferior vena cava thrombosis model, thrombi weights (Example 22); format: in vivo, mouse; conditions: BALB/c mice; for Thrombi weight: 24 hrs after stenosis
Description: Reduced blood flow and endothelial damage are hallmarks of this model, also known as the St. Tomas model.
Four groups of 6-8 BALB/c mice were treated with 5 mg/kg, 10 mg/kg, 20 mg/kg, or 40 mg/kg of ISIS 482584, administered subcutaneously twice a week for 3 weeks (weekly doses of 10 mg/kg, 20 mg/kg, 40 mg/kg, or 80 mg/kg). A control group of 8 BALB/c mice was treated with PBS, administered subcutaneously twice a week for 3 weeks. Two days after the last dose of antisense oligonucleotide or PBS was administered, mice from all groups were anesthetized with 2.5% inhalant isoflurane. The IVC of the mice was exposed via a midline abdominal incision below the left renal vein, and was separated from the abdominal aorta by blunt dissection. A 6-0 silk tie (Ethicon, UK) was placed behind the blood vessel just below the left renal vein and a metal 4-0 suture (Ethicon, UK) was placed longitudinally over the IVC to tie the silk tie on top. The metal suture was then removed. Two neurovascular surgical clips (Braun Medical Inc, PA) were placed at two separate positions below the ligation for 20 seconds each, after which they were removed. The abdominal cavity contents were then replaced and the abdomen was closed. After 24 hrs, the IVC was exposed and checked for thrombi formation. All thrombi formed were collected and fixed in 10% formalin for 24 hrs.
The thrombi were weighed and the results are presented in Table 85, expressed in milligrams.

[4] = system: vascular permeability induced by ISIS 461756; test: C1-INH antisense oligonucleotide-induced vascular permeability, Evans Blue OD600 (Example 18); format: in vivo, mouse
Description: Vascular permeability induced by ISIS 461756, an antisense oligonucleotide which targets murine C1 inhibitor mRNA, increases vascular permeability in mice and replicates the pathology of hereditary angioedema. The effect of ISIS 482584 on this model was evaluated.
One group of 8 mice was treated with 40 mg/kg ISIS 482584 administered subcutaneously twice a week for 3 weeks (weekly dose of 80 mg/kg). A second group of 8 mice was treated with 40 mg/kg of the control oligonucleotide, ISIS 141923, administered subcutaneously twice a week for 3 weeks (weekly dose of 80 mg/kg). A third group of 8 mice was treated with PBS administered subcutaneously twice a week for 3 weeks. On day 14, all the groups were treated with 12.5 mg/kg ISIS 461756 administered subcutaneously twice a week for 3 weeks (weekly dose of 25 mg/kg). A control group of mice was treated with PBS administered subcutaneously twice a week for 3 weeks but was not administered ISIS 461756.
At the end of the treatment period, all the groups were injected with 30 mg/kg of Evans Blue solution into the tail vein. The mice were sacrificed 30 min after the Evans Blue solution administration and colons, feet, ears, and intestines were harvested. The liver was also harvested for RNA analysis.
The harvested tissues from the feet, colon, and intestines were placed in formamide solution overnight to leach out the Evans Blue dye. The formamide solution containing feet tissue was heated to 55° C. and left overnight. The color intensity of the dye-infused formamide solution was then measured at OD600 nm. The data is presented in Table 80 as percent increase or reduction compared to the PBS control not treated with ISIS 461756.

[5] = Liver function markers in cynomolgus monkeys (Example 8); conditions: cynomolgus monkey plasma, 40 mg/kg sc
Description: Prior to the study, the monkeys were kept in quarantine for a 30-day period, during which the animals were observed daily for general health. The monkeys were 2-4 years old and weighed between 2 and 4 kg. Ten groups of four randomly assigned male cynomolgus monkeys each were injected subcutaneously with ISIS oligonucleotide or PBS. PBS solution or ISIS oligonucleotides at a dose of 40 mg/kg were administered initially with a loading regimen consisting of four doses on the first week of the study (days 1, 3, 5, and 7), followed by a maintenance regimen consisting of once weekly administration starting on Day 14 (weeks 2 to 13). Subcutaneous injections were performed in clock-wise rotations at 4 sites on the back; one site per dose. The injection sites were delineated by tattoo, while sedated using ketamine, and were separated by a minimum of 3 cm.
To evaluate the effect of ISIS oligonucleotides on hepatic function, the monkeys were fasted overnight. Approximately, 1.5 mL of blood samples were collected from all the study groups. Blood was collected in tubes without anticoagulant for serum separation. The tubes were kept at room temperature for a minimum of 90 min and then centrifuged at 3,000 rpm for 10 min. Levels of various liver function markers were measured using a Toshiba 120FR NEO chemistry analyzer (Toshiba Co., Japan).

[6] = Evans Blue OD600, all groups ISIS 461756 25 mg/kg/wk, pretreatment PBS or oligonucleotide 80 mg/kg/wk

Which “OD600 nm of Evans Blue dye, Colon” value [1] does the source give for `NC(N)=NCCC[C@@H](N)C(=O)N[C@@H](CCCN=C(N)N)C(=O)N1CCC[C@H]1C(=O)N1C[C@H](O)C[C@H]1C(=O)NCC(=O)N[C@@H](Cc1cccs1)C(=O)N[C@@H](CO)C(=O)N1Cc2ccccc2C[C@@H]1C(=O)N1[C@H](C(=O)N[C@@H](CCCN=C(N)N)C(=O)O)C[C@@H]2CCCC[C@@H]21` [HOE-140, Icatibant, reference compound] here?
Its value is 0.14.

And the “OD600 nm of Evans Blue dye, Ears” value [1]?
The value was 0.008.

And the “OD600 nm of Evans Blue dye, Feet” value [1]?
The value was 0.04.

And the “OD600 nm of Evans Blue dye, Intestines” value [1]?
The value was 0.08.

For “ISIS 482584: 5-10-5 MOE gapmer targeting murine PKK, GGCATATTGGTTTTTGGAAT; SEQ ID NO: 2244 (antisense eG*eG*e[5mC]*eA*eT*dA*dT*dT*dG*dG*dT*dT*dT*dT*dT*eG*eG*eA*eA*eT)”, which Bleeding ([2]; 20 mg/kg/wk sc 3 weeks) is on record?
Its Bleeding is 0.03 mL.

What about the Bleeding ([2]; 40 mg/kg/wk sc 3 weeks) of the same molecule?
The Bleeding was 0.14 mL.

And the Bleeding ([2]; 80 mg/kg/wk sc 3 weeks)?
The Bleeding was 0.07 mL.

And the “tail bleeding” value ([2]; 10-40 mg/kg s.c. twice a week for 3 weeks)?
Its value is “did not significantly affect bleeding”.

And the Thrombi weight ([3]; 10 mg/kg/wk sc 3 weeks)?
Its Thrombi weight is 8 mg.

And the Thrombi weight ([3]; 20 mg/kg/wk sc 3 weeks)?
Its Thrombi weight is 6 mg.

And the Thrombi weight ([3]; 40 mg/kg/wk sc 3 weeks)?
The Thrombi weight was 5 mg.

What about the Thrombi weight ([3]; 80 mg/kg/wk sc 3 weeks) of the same molecule?
Its Thrombi weight is 3 mg.

And the “thrombus weight” value ([3]; increasing doses 5-40 mg/kg s.c. twice a week for 3 weeks)?
The value was “corresponding decrease in thrombus weight”.

And the “vascular permeability induced by ISIS 461756” value ([4]; 40 mg/kg s.c. twice a week for 3 weeks)?
The value was “prevented vascular permeability induced by ISIS 461756”.

What about the “Percent change in vascular permeability compared to the untreated PBS control, Colon” value [4, 6] of the same molecule?
The value was −23%.

And the “Percent change in vascular permeability compared to the untreated PBS control, Feet” value [4, 6]?
Its value is 2%.

And the “Percent change in vascular permeability compared to the untreated PBS control, Intestines” value [4, 6]?
Its value is −25%.

Which ALT [5] does the source give for “Tes Ges mCes Aes Aes Gds Tds mCds Tds mCds Tds Tds Gds Gds mCds Aes Aes Aes mCes Ae [ISIS 546254]” here?
Its ALT is 54 IU/L.

What about the AST [5] of the same molecule?
The AST was 68 IU/L.

What about the Albumin [5] of the same molecule?
The Albumin was 3.8 g/dL.
